PubChem BioAssay (NCI)
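Five compound concentrations were applied to cells in 96-well plates for 48 hours; endpoints were derived by simple linear interpolation of the resulting dose-response curve. GI50 = concentration required for 50% inhibition of growth. Definition used: TGI = concentration required for complete inhibition of growth.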

How the values were obtained:
Test in all cases: NCI anticancer screen, dose series, 48 h
SNB-19 CNS = system: SNB-19 CNS
NCI-H522 lung = system: NCI-H522 lung
SF-268 CNS = system: SF-268 CNS
SK-MEL-2 melanoma = system: SK-MEL-2 melanoma
DU-145 prostate = system: DU-145 prostate
HOP-92 NSCLC = system: HOP-92 NSCLC
U251 CNS = system: U251 CNS
HS 578T breast = system: HS 578T breast
MDA-MB-435 = system: MDA-MB-435
NCI-H226 lung = system: NCI-H226 lung
HCT-15 colon = system: HCT-15 colon
COLO 205 colon = system: COLO 205 colon
HT29 colon = system: HT29 colon
UACC-62 melanoma = system: UACC-62 melanoma
NCI-H460 lung = system: NCI-H460 lung
HOP-62 NSCLC = system: HOP-62 NSCLC
SW-620 colon = system: SW-620 colon
EKVX NSCLC = system: EKVX NSCLC
SK-MEL-28 melanoma = system: SK-MEL-28 melanoma
KM12 colon = system: KM12 colon
RPMI-8226 leukemia = system: RPMI-8226 leukemia
OVCAR-4 ovarian = system: OVCAR-4 ovarian
SF-539 CNS = system: SF-539 CNS
A549 NSCLC = system: A549 NSCLC
UACC-257 melanoma = system: UACC-257 melanoma
MALME-3M melanoma = system: MALME-3M melanoma
OVCAR-5 ovarian = system: OVCAR-5 ovarian
SK-MEL-5 melanoma = system: SK-MEL-5 melanoma
T-47D breast = system: T-47D breast
IGROV1 ovarian = system: IGROV1 ovarian
MCF7 breast = system: MCF7 breast
UO-31 renal = system: UO-31 renal
MDA-MB-231 breast = system: MDA-MB-231 breast
SK-OV-3 ovarian = system: SK-OV-3 ovarian
ACHN renal = system: ACHN renal
PC-3 prostate = system: PC-3 prostate
SNB-75 CNS = system: SNB-75 CNS
TK-10 renal = system: TK-10 renal
LOX IMVI melanoma = system: LOX IMVI melanoma
MOLT-4 leukemia = system: MOLT-4 leukemia
SN12C renal = system: SN12C renal
HCC-2998 colon = system: HCC-2998 colon
NCI/ADR-RES ovarian = system: NCI/ADR-RES ovarian
RXF 393 renal = system: RXF 393 renal
SF-295 CNS = system: SF-295 CNS
OVCAR-8 ovarian = system: OVCAR-8 ovarian
OVCAR-3 ovarian = system: OVCAR-3 ovarian
A498 renal = system: A498 renal
CAKI-1 renal = system: CAKI-1 renal
NCI-H23 lung = system: NCI-H23 lung
786-0 renal = system: 786-0 renal
SR leukemia = system: SR leukemia
BT-549 breast = system: BT-549 breast

## Cc1ccc(C(=O)Nc2ccc(CNCCN3CCNCC3)c(C(F)(F)F)c2)cc1C#Cc1cnc2cccnn12
SNB-19 CNS
  GI50: 1.96 µM
  TGI: 3.54 µM
NCI-H522 lung
  GI50: 1.78 µM
  TGI: 3.48 µM
SF-268 CNS
  GI50: 2.14 µM
  TGI: 4.11 µM
SK-MEL-2 melanoma
  GI50: 1.81 µM
  TGI: 3.68 µM
DU-145 prostate
  GI50: 1.89 µM
  TGI: 3.39 µM
HOP-92 NSCLC
  GI50: 1.45 µM
  TGI: 3.25 µM
U251 CNS
  GI50: 1.72 µM
  TGI: 3.21 µM
HS 578T breast
  GI50: 2.07 µM
  TGI: 5.25 µM
MDA-MB-435
  GI50: 1.77 µM
  TGI: 3.3 µM
NCI-H226 lung
  GI50: 1.84 µM
  TGI: 3.74 µM
HCT-15 colon
  GI50: 1.87 µM
  TGI: 3.43 µM
COLO 205 colon
  GI50: 1.93 µM
  TGI: 3.87 µM
HT29 colon
  GI50: 1.39 µM
  TGI: 2.78 µM
UACC-62 melanoma
  GI50: 1.74 µM
  TGI: 3.27 µM
NCI-H460 lung
  GI50: 1.99 µM
  TGI: 3.81 µM
HOP-62 NSCLC
  GI50: 1.86 µM
  TGI: 3.63 µM
SW-620 colon
  GI50: 1.94 µM
  TGI: 3.65 µM
EKVX NSCLC
  GI50: 2.12 µM
  TGI: 4.13 µM
SK-MEL-28 melanoma
  GI50: 1.73 µM
  TGI: 3.19 µM
KM12 colon
  GI50: 1.78 µM
  TGI: 3.35 µM
RPMI-8226 leukemia
  GI50: 2.18 µM
  TGI: 4.91 µM
OVCAR-4 ovarian
  GI50: 2.04 µM
  TGI: 4.26 µM
SF-539 CNS
  GI50: 1.63 µM
  TGI: 3.06 µM
A549 NSCLC
  GI50: 1.92 µM
  TGI: 3.73 µM
UACC-257 melanoma
  GI50: 1.93 µM
  TGI: 3.85 µM
MALME-3M melanoma
  GI50: 1.71 µM
  TGI: 3.39 µM
OVCAR-5 ovarian
  GI50: 1.79 µM
  TGI: 3.31 µM
SK-MEL-5 melanoma
  GI50: 1.76 µM
  TGI: 3.25 µM
T-47D breast
  GI50: 1.94 µM
  TGI: 4.09 µM
IGROV1 ovarian
  GI50: 1.85 µM
  TGI: 3.49 µM
MCF7 breast
  GI50: 1.78 µM
  TGI: 3.4 µM
UO-31 renal
  GI50: 2.46 µM
  TGI: 5.9 µM
MDA-MB-231 breast
  GI50: 1.41 µM
  TGI: 2.97 µM
SK-OV-3 ovarian
  GI50: 2.13 µM
  TGI: 3.95 µM
ACHN renal
  GI50: 1.82 µM
  TGI: 3.27 µM
PC-3 prostate
  GI50: 1.86 µM
  TGI: 3.4 µM
SNB-75 CNS
  GI50: 0.714 µM
  TGI: 3.53 µM
TK-10 renal
  GI50: 1.97 µM
  TGI: 3.58 µM
LOX IMVI melanoma
  GI50: 1.73 µM
  TGI: 3.18 µM
MOLT-4 leukemia
  GI50: 1.68 µM
  TGI: 4.47 µM
SN12C renal
  GI50: 1.77 µM
  TGI: 3.38 µM
HCC-2998 colon
  GI50: 1.97 µM
  TGI: 3.62 µM
NCI/ADR-RES ovarian
  GI50: 7.54 µM
  TGI: 26.7 µM
RXF 393 renal
  GI50: 1.8 µM
  TGI: 3.24 µM
SF-295 CNS
  GI50: 1.78 µM
  TGI: 3.31 µM
OVCAR-8 ovarian
  GI50: 2.07 µM
  TGI: 4.01 µM
OVCAR-3 ovarian
  GI50: 1.97 µM
  TGI: 3.61 µM
A498 renal
  GI50: 1.8 µM
  TGI: 3.36 µM
CAKI-1 renal
  GI50: 1.79 µM
  TGI: 3.37 µM
NCI-H23 lung
  GI50: 1.85 µM
  TGI: 3.45 µM
786-0 renal
  GI50: 2.17 µM
  TGI: 3.89 µM
SR leukemia
  GI50: 2.47 µM
  TGI: > 100 µM
BT-549 breast
  GI50: 2.17 µM
  TGI: 3.91 µM
